From ChEMBL document CHEMBL4052645, “Discovery of potent and efficacious pyrrolopyridazines as dual JAK1/3 inhibitors” (Bioorg Med Chem Lett, 2017)

Assays:
[1] = target: Tyrosine-protein kinase ZAP-70 (Homo sapiens) (UniProt P43403); assay: Inhibition of wild-type human partial length ZAP70 (D20 to G299 residues) expressed in mammalian expression system assessed as residual activity at 50 nM by Kinomescan method relative to control
[2] = target: Serine/threonine-protein kinase PknB (Mycobacterium tuberculosis) (UniProt P9WI81); assay: Inhibition of wild-type Mycobacterium tuberculosis partial length PKNB (M1 to G279 residues) expressed in mammalian expression system assessed as residual activity at 50 nM by Kinomescan method relative to control
[3] = target: Mitogen-activated protein kinase kinase kinase kinase 1 (Homo sapiens) (UniProt Q92918); assay: Inhibition of wild-type human full length HPK1 (M1 to R799 residues) expressed in bacterial expression system assessed as residual activity at 50 nM by Kinomescan method relative to control
[4] = target: Cyclin-dependent kinase 18 (Homo sapiens) (UniProt Q07002); assay: Inhibition of wild-type human full length PCTAIRE3 (M3 to F474 residues) expressed in bacterial expression system assessed as residual activity at 50 nM by Kinomescan method relative to control
[5] = target: Serine/threonine-protein kinase Chk1 (Homo sapiens) (UniProt O14757); assay: Inhibition of wild-type human partial length CHK1 (M1 to G289 residues) expressed in bacterial expression system assessed as residual activity at 50 nM by Kinomescan method relative to control
[6] = target: Atypical kinase COQ8A, mitochondrial (Homo sapiens) (UniProt Q8NI60); assay: Inhibition of wild-type human […] ADCK3 (M280 to Q647 residues) expressed in bacterial expression system assessed as residual activity at 50 nM by Kinomescan method relative to control
[7] = target: Tyrosine-protein kinase receptor Tie-1 (Homo sapiens) (UniProt P35590); assay: Inhibition of wild-type human partial length TIE1 (T819 to A1138 residues) expressed in bacterial expression system assessed as residual activity at 50 nM by Kinomescan method relative to control
[8] = target: Serine/threonine-protein kinase Nek3 (Homo sapiens) (UniProt P51956); assay: Inhibition of wild-type human full length NEK3 (M1 to R506 residues) expressed in mammalian expression system assessed as residual activity at 50 nM by Kinomescan method relative to control
[9] = target: Leucine-rich repeat serine/threonine-protein kinase 2 (Homo sapiens) (UniProt Q5S007); assay: Inhibition of wild-type human partial length LRRK2 (H970 to E2527 residues) expressed in mammalian expression system assessed as residual activity at 50 nM by Kinomescan method relative to control
[10] = target: Casein kinase I isoform epsilon (Homo sapiens) (UniProt P49674); assay: Inhibition of wild-type human full length CK1E (M1 to K416 residues) expressed in bacterial expression system assessed as residual activity at 50 nM by Kinomescan method relative to control
[11] = target: TGF-beta receptor type-2 (Homo sapiens) (UniProt P37173); assay: Inhibition of wild-type human partial length TGFBR2 (I218 to K567 residues) expressed in bacterial expression system assessed as residual activity at 50 nM by Kinomescan method relative to control
[12] = target: TRAF2 and NCK-interacting protein kinase (Homo sapiens) (UniProt Q9UKE5); assay: Inhibition of wild-type human partial length TNIK (D4 to K311 residues) expressed in bacterial expression system assessed as residual activity at 50 nM by Kinomescan method relative to control
[13] = target: Cyclin-dependent kinase 3 (Homo sapiens) (UniProt Q00526); assay: Inhibition of wild-type human full length CDK3 (M1 to H305 residues) expressed in bacterial expression system assessed as residual activity at 50 nM by Kinomescan method relative to control
[14] = target: Fibroblast growth factor receptor 2 (Homo sapiens) (UniProt P21802); assay: Inhibition of wild-type human partial length FGFR2 (D457 to E769 residues) expressed in bacterial expression system assessed as residual activity at 50 nM by Kinomescan method relative to control
[15] = target: RAF proto-oncogene serine/threonine-protein kinase (Homo sapiens) (UniProt P04049); assay: Inhibition of wild-type human partial length RAF1 (I330 to T640 residues) expressed in bacterial expression system assessed as residual activity at 50 nM by Kinomescan method relative to control
[16] = target: Serine/threonine-protein kinase MARK2 (Homo sapiens) (UniProt Q7KZI7); assay: Inhibition of wild-type human partial length MARK2 (M1 to R450 residues) expressed in bacterial expression system assessed as residual activity at 50 nM by Kinomescan method relative to control
[17] = target: Serine/threonine-protein kinase BRSK1 (Homo sapiens) (UniProt Q8TDC3); assay: Inhibition of wild-type human partial length BRSK1 (M1 to E754 residues) expressed in bacterial expression system assessed as residual activity at 50 nM by Kinomescan method relative to control
[18] = target: Dual specificity mitogen-activated protein kinase kinase 2 (Homo sapiens) (UniProt P36507); assay: Inhibition of wild-type human full length MAP2K2 (M1 to V400 residues) expressed in mammalian expression system assessed as residual activity at 50 nM by Kinomescan method relative to control
[19] = target: High affinity nerve growth factor receptor (Homo sapiens) (UniProt P04629); assay: Inhibition of wild-type human partial length TRKA (G475 to G790 residues) expressed in mammalian expression system assessed as residual activity at 50 nM by Kinomescan method relative to control
[20] = target: Muscle, skeletal receptor tyrosine-protein kinase (Homo sapiens) (UniProt O15146); assay: Inhibition of wild-type human partial length MUSK (M553 to V869 residues) expressed in bacterial expression system assessed as residual activity at 50 nM by Kinomescan method relative to control
[21] = test system: Phosphatidylinositol 4,5-bisphosphate 3-kinase catalytic subunit alpha isoform (Homo sapiens), P42336 [Q546K]; assay: Inhibition of human partial length PIK3CA Q546K mutant (R108 to N1068 residues) expressed in mammalian expression system assessed as residual activity at 50 nM by Kinomescan method relative to control
[22] = target: Cyclin-dependent kinase 2 (Homo sapiens) (UniProt P24941); assay: Inhibition of wild-type human full length CDK2 (M1 to L298 residues) expressed in bacterial expression system assessed as residual activity at 50 nM by Kinomescan method relative to control
[23] = target: Protein kinase C epsilon type (Homo sapiens) (UniProt Q02156); assay: Inhibition of wild-type human partial length PKCE (A378 to P737 residues) expressed in mammalian expression system assessed as residual activity at 50 nM by Kinomescan method relative to control
[24] = target: Serine/threonine-protein kinase PLK2 (Homo sapiens) (UniProt Q9NYY3); assay: Inhibition of wild-type human partial length PLK2 (H58 to F354 residues) expressed in mammalian expression system assessed as residual activity at 50 nM by Kinomescan method relative to control
[25] = target: Serine/threonine-protein kinase D2 (Homo sapiens) (UniProt Q9BZL6); assay: Inhibition of wild-type human partial length PKD2 (A519 to E838 residues) expressed in bacterial expression system assessed as residual activity at 50 nM by Kinomescan method relative to control

Sequence of Phosphatidylinositol 4,5-bisphosphate 3-kinase catalytic subunit alpha isoform (Homo sapiens), P42336 [Q546K] (P42336 whole entry Q546K, the tested form may be a part, canonical isoform): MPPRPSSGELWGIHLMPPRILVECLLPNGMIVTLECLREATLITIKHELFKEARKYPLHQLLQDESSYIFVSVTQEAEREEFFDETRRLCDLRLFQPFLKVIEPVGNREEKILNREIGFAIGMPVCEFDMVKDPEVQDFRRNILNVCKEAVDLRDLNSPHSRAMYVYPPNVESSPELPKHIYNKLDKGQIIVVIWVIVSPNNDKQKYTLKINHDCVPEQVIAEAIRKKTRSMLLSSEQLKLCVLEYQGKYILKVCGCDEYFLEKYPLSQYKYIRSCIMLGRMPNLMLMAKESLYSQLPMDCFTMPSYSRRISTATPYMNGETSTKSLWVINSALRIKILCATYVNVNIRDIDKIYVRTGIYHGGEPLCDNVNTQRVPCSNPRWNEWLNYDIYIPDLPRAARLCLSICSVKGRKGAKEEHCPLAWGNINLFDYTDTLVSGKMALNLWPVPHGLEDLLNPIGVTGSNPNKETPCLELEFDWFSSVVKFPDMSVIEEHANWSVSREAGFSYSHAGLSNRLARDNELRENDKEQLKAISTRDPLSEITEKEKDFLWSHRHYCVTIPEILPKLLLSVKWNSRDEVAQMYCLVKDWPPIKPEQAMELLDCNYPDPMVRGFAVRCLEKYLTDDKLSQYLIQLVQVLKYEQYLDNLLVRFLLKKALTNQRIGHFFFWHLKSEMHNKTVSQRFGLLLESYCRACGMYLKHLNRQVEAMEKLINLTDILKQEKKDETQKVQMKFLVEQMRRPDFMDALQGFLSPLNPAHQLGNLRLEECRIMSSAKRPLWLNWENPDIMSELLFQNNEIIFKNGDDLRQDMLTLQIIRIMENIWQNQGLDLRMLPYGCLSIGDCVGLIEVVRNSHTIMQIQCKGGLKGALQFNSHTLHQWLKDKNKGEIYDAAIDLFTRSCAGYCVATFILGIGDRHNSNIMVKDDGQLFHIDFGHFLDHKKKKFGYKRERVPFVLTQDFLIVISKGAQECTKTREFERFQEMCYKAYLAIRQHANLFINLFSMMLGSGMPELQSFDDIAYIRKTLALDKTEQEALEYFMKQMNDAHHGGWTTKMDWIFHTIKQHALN
Sequence of Atypical kinase COQ8A, mitochondrial (Homo sapiens) (Q8NI60 163-647 limits assumed): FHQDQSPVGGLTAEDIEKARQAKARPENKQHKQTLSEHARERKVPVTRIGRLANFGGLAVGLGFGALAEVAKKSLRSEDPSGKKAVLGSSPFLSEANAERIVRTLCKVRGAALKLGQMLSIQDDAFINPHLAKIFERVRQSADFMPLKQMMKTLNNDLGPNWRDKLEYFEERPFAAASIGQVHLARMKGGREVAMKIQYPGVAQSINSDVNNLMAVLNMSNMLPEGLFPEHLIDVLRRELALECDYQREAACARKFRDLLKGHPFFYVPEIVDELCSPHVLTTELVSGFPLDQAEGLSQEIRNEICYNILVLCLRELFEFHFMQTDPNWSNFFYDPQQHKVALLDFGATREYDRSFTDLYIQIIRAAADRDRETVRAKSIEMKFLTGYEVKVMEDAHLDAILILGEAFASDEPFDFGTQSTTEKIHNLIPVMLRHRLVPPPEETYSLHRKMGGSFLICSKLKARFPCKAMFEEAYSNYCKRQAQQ
Sequence of RAF proto-oncogene serine/threonine-protein kinase (Homo sapiens) (P04049 whole entry, the tested form may be a part): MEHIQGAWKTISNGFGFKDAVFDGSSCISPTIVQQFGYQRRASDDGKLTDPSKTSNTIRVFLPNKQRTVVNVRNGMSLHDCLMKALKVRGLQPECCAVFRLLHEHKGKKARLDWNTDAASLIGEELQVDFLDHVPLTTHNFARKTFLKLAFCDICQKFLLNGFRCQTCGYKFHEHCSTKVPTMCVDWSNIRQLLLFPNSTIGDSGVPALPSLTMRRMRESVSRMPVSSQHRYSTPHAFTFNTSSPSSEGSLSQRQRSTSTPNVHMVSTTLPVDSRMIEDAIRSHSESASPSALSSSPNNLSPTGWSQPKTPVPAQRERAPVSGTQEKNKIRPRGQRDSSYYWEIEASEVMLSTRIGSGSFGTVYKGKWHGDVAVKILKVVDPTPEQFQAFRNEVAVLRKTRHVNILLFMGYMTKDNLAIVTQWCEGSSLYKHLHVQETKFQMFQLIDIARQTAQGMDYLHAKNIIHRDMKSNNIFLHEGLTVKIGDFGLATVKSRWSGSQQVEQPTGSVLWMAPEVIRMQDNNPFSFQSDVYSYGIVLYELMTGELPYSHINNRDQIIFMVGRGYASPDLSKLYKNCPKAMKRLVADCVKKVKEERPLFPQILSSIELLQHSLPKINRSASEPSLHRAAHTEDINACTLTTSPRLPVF
Sequence of Serine/threonine-protein kinase MARK2 (Homo sapiens) (Q7KZI7 whole entry, the tested form may be a part): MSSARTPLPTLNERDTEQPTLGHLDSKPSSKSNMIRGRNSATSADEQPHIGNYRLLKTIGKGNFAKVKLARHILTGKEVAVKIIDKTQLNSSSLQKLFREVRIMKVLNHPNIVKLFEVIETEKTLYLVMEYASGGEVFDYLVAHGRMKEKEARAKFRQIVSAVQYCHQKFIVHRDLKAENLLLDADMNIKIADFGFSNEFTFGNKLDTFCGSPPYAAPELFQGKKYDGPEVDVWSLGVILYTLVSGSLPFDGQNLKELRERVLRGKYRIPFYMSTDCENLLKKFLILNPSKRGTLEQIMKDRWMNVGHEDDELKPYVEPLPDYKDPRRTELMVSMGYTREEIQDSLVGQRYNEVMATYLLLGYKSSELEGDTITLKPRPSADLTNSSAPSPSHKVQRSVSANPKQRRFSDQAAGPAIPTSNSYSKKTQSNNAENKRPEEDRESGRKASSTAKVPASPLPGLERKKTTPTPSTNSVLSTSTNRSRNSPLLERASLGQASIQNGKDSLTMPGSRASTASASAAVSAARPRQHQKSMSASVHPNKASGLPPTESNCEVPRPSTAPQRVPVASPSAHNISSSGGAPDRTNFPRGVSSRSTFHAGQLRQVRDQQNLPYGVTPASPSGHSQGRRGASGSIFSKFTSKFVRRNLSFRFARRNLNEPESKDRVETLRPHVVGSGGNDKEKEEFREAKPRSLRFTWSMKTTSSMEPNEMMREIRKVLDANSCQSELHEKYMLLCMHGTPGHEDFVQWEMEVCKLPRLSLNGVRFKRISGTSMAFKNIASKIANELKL
Sequence of Cyclin-dependent kinase 18 (Homo sapiens) (Q07002 whole entry, the tested form may be a part): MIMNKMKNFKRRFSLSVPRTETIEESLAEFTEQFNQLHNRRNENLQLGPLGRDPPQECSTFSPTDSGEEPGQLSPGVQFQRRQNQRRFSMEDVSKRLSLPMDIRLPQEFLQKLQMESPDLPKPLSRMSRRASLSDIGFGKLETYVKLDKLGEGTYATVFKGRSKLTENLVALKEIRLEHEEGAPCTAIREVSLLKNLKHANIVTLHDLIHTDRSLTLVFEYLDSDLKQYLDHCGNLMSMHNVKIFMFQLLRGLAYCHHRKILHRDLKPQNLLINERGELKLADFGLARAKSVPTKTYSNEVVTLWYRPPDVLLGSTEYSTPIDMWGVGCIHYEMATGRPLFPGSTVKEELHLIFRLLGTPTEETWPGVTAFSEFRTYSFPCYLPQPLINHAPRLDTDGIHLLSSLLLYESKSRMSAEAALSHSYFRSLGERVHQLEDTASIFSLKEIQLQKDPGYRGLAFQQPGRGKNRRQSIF
Sequence of Mitogen-activated protein kinase kinase kinase kinase 1 (Homo sapiens) (Q92918 whole entry, looked up, the tested form may be a part): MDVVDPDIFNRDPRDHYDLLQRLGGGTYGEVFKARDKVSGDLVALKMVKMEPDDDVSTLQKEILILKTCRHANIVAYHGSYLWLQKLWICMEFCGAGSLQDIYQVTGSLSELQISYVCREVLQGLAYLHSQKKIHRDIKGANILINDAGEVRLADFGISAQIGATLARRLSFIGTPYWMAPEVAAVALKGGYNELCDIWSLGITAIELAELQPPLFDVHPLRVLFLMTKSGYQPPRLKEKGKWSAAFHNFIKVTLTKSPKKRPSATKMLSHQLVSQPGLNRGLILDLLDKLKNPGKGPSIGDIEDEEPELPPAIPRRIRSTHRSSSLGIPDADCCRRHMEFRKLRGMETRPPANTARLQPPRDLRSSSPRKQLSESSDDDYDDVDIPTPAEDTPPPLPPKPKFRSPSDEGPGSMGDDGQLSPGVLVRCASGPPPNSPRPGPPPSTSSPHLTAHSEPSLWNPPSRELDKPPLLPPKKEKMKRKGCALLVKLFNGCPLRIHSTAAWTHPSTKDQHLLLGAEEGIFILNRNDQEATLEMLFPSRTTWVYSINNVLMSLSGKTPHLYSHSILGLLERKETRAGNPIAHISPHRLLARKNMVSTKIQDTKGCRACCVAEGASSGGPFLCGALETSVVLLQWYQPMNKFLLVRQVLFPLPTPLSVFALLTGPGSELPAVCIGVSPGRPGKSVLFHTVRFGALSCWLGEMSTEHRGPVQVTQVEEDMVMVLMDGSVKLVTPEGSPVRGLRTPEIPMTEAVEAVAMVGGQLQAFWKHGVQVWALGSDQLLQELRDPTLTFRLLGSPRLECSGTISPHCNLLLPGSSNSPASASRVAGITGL
Sequence of Serine/threonine-protein kinase PLK2 (Homo sapiens) (Q9NYY3 whole entry, looked up, the tested form may be a part): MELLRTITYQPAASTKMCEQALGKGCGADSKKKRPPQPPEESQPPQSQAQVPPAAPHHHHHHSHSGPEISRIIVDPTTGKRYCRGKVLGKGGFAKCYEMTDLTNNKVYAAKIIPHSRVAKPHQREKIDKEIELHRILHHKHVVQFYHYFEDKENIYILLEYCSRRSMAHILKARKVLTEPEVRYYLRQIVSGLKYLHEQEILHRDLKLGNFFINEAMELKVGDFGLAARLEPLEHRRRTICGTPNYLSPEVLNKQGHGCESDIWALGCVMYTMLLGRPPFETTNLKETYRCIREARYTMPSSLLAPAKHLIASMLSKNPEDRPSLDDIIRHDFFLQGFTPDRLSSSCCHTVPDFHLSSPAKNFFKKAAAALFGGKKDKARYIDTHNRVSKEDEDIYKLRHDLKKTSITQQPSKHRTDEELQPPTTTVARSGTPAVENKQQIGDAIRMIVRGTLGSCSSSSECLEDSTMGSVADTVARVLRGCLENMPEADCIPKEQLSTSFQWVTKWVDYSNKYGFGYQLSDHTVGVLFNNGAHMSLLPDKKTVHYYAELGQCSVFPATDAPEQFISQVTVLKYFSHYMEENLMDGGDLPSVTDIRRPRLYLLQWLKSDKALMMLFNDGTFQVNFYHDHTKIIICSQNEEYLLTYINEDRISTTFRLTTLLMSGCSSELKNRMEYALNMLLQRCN

Row | SMILES | Activity [1] [%] | Activity [2] [%] | Activity [3] [%] | Activity [4] [%] | Activity [5] [%] | Activity [6] [%] | Activity [7] [%] | Activity [8] [%] | Activity [9] [%] | Activity [10] [%] | Activity [11] [%] | Activity [12] [%] | Activity [13] [%] | Activity [14] [%] | Activity [15] [%] | Activity [16] [%] | Activity [17] [%] | Activity [18] [%] | Activity [19] [%] | Activity [20] [%] | other results
1 | COc1ccc(-c2cc3c(N[C@@H]4CC[C@](C)(N)C4(C)C)c(C(N)=O)cnn3c2)cn1 | 92 | 24 | 70 | 100 | 85 | 76 | 97 | 100 | 25 | 87 | 100 | 93 | 94 | 89 | 100 | 98 | 100 | 100 | 100 | 90 | Activity [21]: 100%; Activity [22]: 88%; Activity [23]: 72%; Activity [24]: 100%; Activity [25]: 100%
2 | CC1(C)[C@H](Nc2c(C(N)=O)cnn3cc(-c4ccccc4)cc23)CC[C@]1(C)N | 79 | 17 | 66 | 58 | 98 | 100 | 91 | 89 | 21 | 92 | 100 | 66 | 98 | 100 | 100 | 64 | 75 | 84 | 83 | 43 | Activity [21]: 84%; Activity [22]: 100%; Activity [23]: 58%; Activity [24]: 100%; Activity [25]: 100%
